Results from patent US6642392B1 (priority 1997, dated 2003).
Where two headings read alike, the source gives them in different places.

How the values were obtained:
Assay type in all cases: in vivo
[1] = tested on: Eiysiphe graminis f. sp. tritici; assay: Test A: wheat powdery mildew, preventive spray on wheat seedlings; settings: for Test A disease control rating: wheat powdery mildew; for Test A disease control rating (100 = 100% disease control, 0 = no disease control): wheat seedlings sprayed to run-off, inoculated the following day, rating relative to controls, unmarked compounds (standard test rate)
Procedure, shortened: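 Preventive test: seedlings inoculated with powdery mildew spores one day after run-off spraying of a suspension. Ratings after 7 days in a 20° C growth chamber express percent disease control versus controls.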

[2] = tested on: Pyricularia oryzae; settings: for Test C disease control rating: rice blast; for Test C disease control rating (100 = 100% disease control, 0 = no disease control): rice seedlings sprayed to run-off, inoculated the following day, rating relative to controls, unmarked compounds (standard test rate)
[3] = tested on: Phytophthora infestans; settings: for Test D disease control rating: tomato late blight; for Test D disease control rating (100 = 100% disease control, 0 = no disease control): tomato seedlings sprayed to run-off, inoculated the following day, rating relative to controls, unmarked compounds (standard test rate)
[4] = tested on: Botrytis cinerea; assay: Test E: gray mold, preventive spray on cucumber seedlings; settings: for Test E disease control rating: gray mold on cucumber; for Test E disease control rating (100 = 100% disease control, 0 = no disease control): cucumber seedlings sprayed to run-off, inoculated the following day, rating relative to controls, unmarked compounds (standard test rate)
Procedure, shortened: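 Preventive spray on cucumber seedlings used a suspension (3% acetone, 250 ppm Trem 014), applied to run-off one day before inoculation with Botrytis cinerea spores. Plants were held 48 h at 20° C in saturated air, then 5 days at 20° C. Percent disease control was scored relative to untreated plants.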

[5] = tested on: Puccinia recondita; assay: Test B: wheat leaf rust, preventive spray on wheat seedlings; settings: for Test B disease control rating: wheat leaf rust; for Test B disease control rating (100 = 100% disease control, 0 = no disease control): wheat seedlings sprayed to run-off, inoculated the following day, rating relative to controls, unmarked compounds (standard test rate)
Procedure, shortened: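 Preventive test: P. recondita spores were applied one day after a run-off spray of compound suspension on wheat seedlings. Plants had 24 h at 20 °C in saturated air plus 6 days in a 20 °C growth chamber. Scoring is % disease control (100 = full) relative to controls.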

[6] = 100 = 100% disease control, 0 = no control relative to controls, unmarked entries (standard test concentration)
[7] = 100 = 100% disease control, 0 = no control, unmarked entries (standard test concentration)

Structure (SMILES) | Test A disease control rating [1, 6] [%] | Test C disease control rating [2, 7] [%] | Test D disease control rating [3, 7] [%] | Test E disease control rating [4, 7] [%] | Test B disease control rating [5, 7] [%] | Test A disease control rating (100 = 100% disease control, 0 = no disease control) [1] [%] | Test C disease control rating (100 = 100% disease control, 0 = no disease control) [2] [%] | Test D disease control rating (100 = 100% disease control, 0 = no disease control) [3] [%] | Test E disease control rating (100 = 100% disease control, 0 = no disease control) [4] [%] | Test B disease control rating (100 = 100% disease control, 0 = no disease control) [5] [%] | also measured
CC(C(C#N)C(=O)NCC=Cc1ccccc1F)C(C)(C)C (mixture of isomers) [compound 75] | – | – | – | – | – | – | – | – | – | – | Test A disease control rating ([1]; tested at 40 ppm): 0%; Test C disease control rating ([2]; tested at 40 ppm): 52%; Test D disease control rating ([3]; tested at 40 ppm): 19%; Test E disease control rating ([4]; tested at 40 ppm): 0%; Test B disease control rating ([5]; tested at 40 ppm): 0%
C#CC(C)(C)C(C#N)C(=O)NC(C)COc1cc(F)ccc1Cl (mixture of isomers) [compound 193] | 0 | 100 | 0 | 55 | 0 | – | – | – | – | – | –
C[C@H](COc1cccc(I)c1)NC(=O)C(C#N)C(C)(C)C (single isomer, unassigned) [12a] | 86 | 91 | 0 | 0 | 68 | – | – | – | – | – | –
CCC1(C(=O)NC(C)COc2cccc(CF)c2)C(C)C1(Cl)Cl (mixture of isomers) [compound 102] | – | – | – | – | – | – | – | – | – | – | Test A disease control rating ([1]; tested at 40 ppm): 60%; Test C disease control rating ([2]; tested at 40 ppm): 0%; Test D disease control rating ([3]; tested at 40 ppm): 0%; Test E disease control rating ([4]; tested at 40 ppm): 0%; Test B disease control rating ([5]; tested at 40 ppm): 0%
CC(COc1cc(OC(F)F)ccc1C#N)NC(=O)C(C#N)C(C)C(C)(C)C (mixture of isomers) [compound 277] | – | – | – | – | – | 0 | 0 | 0 | 0 | 0 | –
CCC1(C(=O)NC(C)COc2c(Cl)cc(Cl)cc2Cl)C(C)C1(Cl)Cl (stereo not shown) [compound 118] | – | – | – | – | – | – | – | – | – | – | Test A disease control rating ([1]; tested at 40 ppm): 83%; Test C disease control rating ([2]; tested at 40 ppm): 0%; Test D disease control rating ([3]; tested at 40 ppm): 0%; Test E disease control rating ([4]; tested at 40 ppm): 0%; Test B disease control rating ([5]; tested at 40 ppm): 0%
CCC1(C(=O)NC(C)COc2ccc(Br)cc2F)C(C)C1(Cl)Cl (mixture of isomers) [compound 122] | 0 | 0 | 0 | 0 | 0 | – | – | – | – | – | –
CC(COc1cc(F)ccc1OC(F)F)NC(=O)C(C#N)C(C)(C)C (mixture of isomers) [compound 292] | – | – | – | – | – | 0 | 99 | 46 | 0 | 0 | –
CCC(C)c1ccccc1OCC(C)NC(=O)C(C#N)C(C)(C)C (mixture of isomers) [compound 306] | – | – | – | – | – | 0 | 99 | 0 | 94 | 67 | –
CC(COc1ccccc1C#N)NC(=O)C(C#N)C(C)C(C)(C)C (mixture of isomers) [compound 60] | – | – | – | – | – | – | – | – | – | – | Test A disease control rating ([1]; tested at 40 ppm): 91%; Test C disease control rating ([2]; tested at 40 ppm): 0%; Test D disease control rating ([3]; tested at 40 ppm): 0%; Test E disease control rating ([4]; tested at 40 ppm): 0%; Test B disease control rating ([5]; tested at 40 ppm): 0%
CC(COc1ccccc1C(C)C)NC(=O)C(C#N)C(C)(C)C (mixture of isomers) [compound 22] | 0 | 100 | 0 | 0 | 0 | – | – | – | – | – | –
CC(C)(C)C(C#N)C(=O)NC/C=C/c1ccccc1 (racemic) [compound 167] | 0 | 74 | 23 | 0 | 0 | – | – | – | – | – | –
CCC1(C(=O)NC(C)COc2cc(F)cc(F)c2)C(C)C1(Cl)Cl (stereo not shown) [compound 234] | – | – | – | – | – | 0 | 100 | 0 | 0 | 0 | –
C=C(F)C(C)(C)C(C#N)C(=O)NC(C)COc1cc(F)ccc1Cl (mixture of isomers) [compound 223] | – | – | – | – | – | 62 | 100 | 41 | 0 | 28 | –
